In US8383637B2, “2-amino-quinazoline derivatives useful as inhibitors of β-secretase (BACE)” (Jansssen Pharmaceutica N.V., priority 2004, dated 2013):
Several values for one entry are separate records, joined by “and”; a condition that tells them apart may be missing. Equal values may be shown once.

Target: T1, β-secretase(BACE) (Homo sapiens, UniProt P56817)
T1 construct: purchased Panvera
Assay: BACE FS1% Inhibition Assay
Type: biochemical
Conditions: FS1 substrate
Procedure: BACE FS1% Inhibition Assay The following reagents were used in this assay: sodium acetate, PEG8000 (Sigma), DMSO, HEPES, FS1 substrate [[…]] […] The FS1-substrate stock solution was prepared in DMSO as a 10 mg/mL solution. The FS1-substrate working solution was prepared by diluting the 10 mg/mL stock solution with substrate assay buffer to a final concentration of 300 μg/mL. The β-secretase (BACE) working solution was prepared by diluting a 0.83 mg/mL BACE stock solution with enzyme assay buffer to a final concentration of 4 μg/mL. Test compounds were dissolved in DMSO to 10 mM. […] The screening procedure for this assay was as follows: 15 μL of BACE working solution was pipetted into each well of a 96-well plate. To each well was then pipetted 2 μL of test compound at the selected concentration. Test compound and BACE were then mixed with a pipettor and incubated for 20 min at room temperature. To each well was then added 10 μL of the FS1 substrate working solution. The plates were then incubated for 1 hour at room temperature. […] The procedure for the blank was as follows. 15 μL of assay buffer was pipetted into each well to be used as a blank control. To each well was then added 2 μL of vehicle and 10 μL of FS1-substrate working solution. The plates were then incubated for 1 hour at room temperature. […] The procedure for the positive control was as follows: 15 μL of BACE working solution was pipetted into each well to be used as a positive control. To each well was then pipetted 2 μL of vehicle. Vehicle and BACE were then mixed with a pipettor and incubated for 20 min at room temperature. To each well was then added 10 μL of the FS1 substrate working solution. The plates were then incubated for 1 hour at room temperature. […] For test compounds, % inhibition was determined at each concentration as follows: [formula]

T1 sequence (P56817 46-501): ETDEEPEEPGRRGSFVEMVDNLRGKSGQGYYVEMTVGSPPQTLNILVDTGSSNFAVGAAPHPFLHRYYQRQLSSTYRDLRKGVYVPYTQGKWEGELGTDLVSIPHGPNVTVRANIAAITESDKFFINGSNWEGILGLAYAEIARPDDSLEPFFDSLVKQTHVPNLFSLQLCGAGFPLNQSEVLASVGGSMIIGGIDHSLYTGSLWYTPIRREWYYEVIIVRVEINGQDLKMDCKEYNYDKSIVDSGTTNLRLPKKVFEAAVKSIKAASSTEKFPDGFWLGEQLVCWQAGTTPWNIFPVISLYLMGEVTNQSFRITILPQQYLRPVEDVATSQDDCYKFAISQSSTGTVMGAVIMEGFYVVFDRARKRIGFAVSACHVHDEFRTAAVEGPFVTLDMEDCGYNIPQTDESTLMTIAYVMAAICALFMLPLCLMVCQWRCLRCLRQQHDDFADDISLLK

SMILES | % Inhibition (FS) 0.3 μM (0.3 μM test compound) | % Inhibition (FS) 1 μM (1 μM test compound) | % Inhibition (FS) 3 μM (3 μM test compound) | % Inhibition (FS) 3 μM (3 μM test compound, 3 µM) | inhibition at 0.3 µM (0.3 μM test compound, read-out: % Inhibition (FS) 0.3 μM) | inhibition at 1 µM (1 μM test compound, read-out: % Inhibition (FS) 1 μM) | inhibition at 3 µM (3 μM test compound, read-out: % Inhibition (FS) 3 μM)
COc1cccc(OC)c1Oc1ccc2c(c1)CN(CCC(=O)NC1C3CC4CC(C3)CC1C4)C(N)=N2 (stereo not drawn) [Compound 465] | <30% | <30% | <30% | – | – | – | –
CC(C)c1ccccc1Oc1ccc2c(c1)CN(CCC(=O)NC1C3CC4CC(C3)CC1C4)C(N)=N2 (stereo not drawn) [Compound 466] | <30% | <30% | 53% | – | – | – | –
COc1ccc(C)cc1Oc1ccc2c(c1)CN(Cc1cccc(C(=O)N(C)C3CCCCC3)c1)C(N)=N2 [Compound 467] | <30% | <30% | <30% | – | – | – | –
COc1cccc(C)c1Oc1ccc2c(c1)CN(Cc1cccc(C(=O)N(C)C3CCCCC3)c1)C(N)=N2 [Compound 468] | <30% | <30% | <30% | – | – | – | –
COc1ccc(-c2nc3ccccc3s2)c(Oc2ccc3c(c2)CN(Cc2cccc(C(=O)N(C)C4CCCCC4)c2)C(N)=N3)c1 [Compound 469] | <30% | <30% | <30% | – | – | – | –
CN(C(=O)c1cccc(CN2Cc3cc(Oc4ccccc4-c4nc5ccccc5s4)ccc3N=C2N)c1)C1CCCCC1 [Compound 470] | <30% | <30% | 31% | – | – | – | –
CN(C(=O)c1cccc(CN2Cc3cc(Oc4ccccc4-n4cccc4)ccc3N=C2N)c1)C1CCCCC1 [Compound 471] | <30% | <30% | 38% | – | – | – | –
CN(C(=O)c1cccc(CN2Cc3cc(Oc4ccccc4S(C)(=O)=O)ccc3N=C2N)c1)C1CCCCC1 [Compound 472] | <30% | <30% | <30% | – | – | – | –
CN(C(=O)c1cccc(CN2Cc3cc(Oc4cccc(-c5ccc6ccccc6n5)c4)ccc3N=C2N)c1)C1CCCCC1 [Compound 473] | <30% | <30% | <30% | – | – | – | –
CSc1ccccc1Oc1ccc2c(c1)CN(Cc1cccc(C(=O)N(C)C3CCCCC3)c1)C(N)=N2 [Compound 474] | <30% | <30% | <30% | – | – | – | –
Cc1cccc(C)c1Oc1ccc2c(c1)CN(Cc1cccc(C(=O)N(C)C3CCCCC3)c1)C(N)=N2 [Compound 475] | <30% | <30% | <30% | – | – | – | –
COc1cccc(OC)c1Oc1ccc2c(c1)CN(Cc1cccc(C(=O)N(C)C3CCCCC3)c1)C(N)=N2 [Compound 477] | <30% | <30% | <30% | – | – | – | –
CC(C)Oc1ccccc1Oc1ccc2c(c1)CN(Cc1cccc(C(=O)N(C)C3CCCCC3)c1)C(N)=N2 [Compound 478] | <30% | <30% | 46% | – | – | – | –
CN(C)c1cccc(Oc2ccc3c(c2)CN(Cc2cccc(C(=O)N(C)C4CCCCC4)c2)C(N)=N3)c1 [Compound 479] | <30% | <30% | 81% | – | – | – | –
C=CCc1cccc(C)c1Oc1ccc2c(c1)CN(Cc1cccc(C(=O)N(C)C3CCCCC3)c1)C(N)=N2 [Compound 480] | <30% | <30% | 38% | – | – | – | –
C=CCc1cccc(OC)c1Oc1ccc2c(c1)CN(Cc1cccc(C(=O)N(C)C3CCCCC3)c1)C(N)=N2 [Compound 481] | <30% | <30% | 32% | – | – | – | –
CCCc1cccc(C)c1Oc1ccc2c(c1)CN(Cc1cccc(C(=O)N(C)C3CCCCC3)c1)C(N)=N2 [Compound 482] | <30% | <30% | 43% | – | – | – | –

SMILES | % Inhibition (FS) 0.3 μM (0.3 μM test compound) | % Inhibition (FS) 1 μM (1 μM test compound) | % Inhibition (FS) 3 μM (3 μM test compound) | % Inhibition (FS) 3 μM (3 μM test compound, 3 µM) | inhibition at 0.3 µM (0.3 μM test compound, read-out: % Inhibition (FS) 0.3 μM) | inhibition at 1 µM (1 μM test compound, read-out: % Inhibition (FS) 1 μM) | inhibition at 3 µM (3 μM test compound, read-out: % Inhibition (FS) 3 μM)
CN(C(=O)c1cccc(CN2Cc3cc(Oc4ccccc4C(=O)N4CCCC4)ccc3N=C2N)c1)C1CCCCC1 [Compound 483] | <30% | <30% | <30% | – | – | – | –
NC1=Nc2ccc(Oc3ccccc3)cc2CN1[C@H](CNC(=O)C1CCCCC1)C1CCCCC1 [Compound 484] | <30% | <30% | 62% | – | – | – | –
C[C@@H](CNC(=O)C1CCCCC1)N1Cc2cc(Oc3ccccc3)ccc2N=C1N [Compound 486] | <30% | <30% | <30% | – | – | – | –
COc1ccccc1-c1ccc2c(c1)CN(CCNC(=O)C1(C(N)=O)CC1)C(N)=N2 [Compound 488] | <30% | <30% | <30% | – | – | – | –
COc1ccccc1-c1ccc2c(c1)CN(CCNC(=O)CN)C(N)=N2 [Compound 490] | <30% | <30% | <30% | – | – | – | –
COc1ccccc1-c1ccc2c(c1)CN(CCNC(=O)C1CCN(C(C)=O)CC1)C(N)=N2 [Compound 491] | <30% | <30% | – | 44% and <30% | – | – | –
COc1ccccc1-c1ccc2c(c1)CN(CCNC(=O)CCN)C(N)=N2 [Compound 493] | <30% | <30% | 49% | – | – | – | –
COc1ccccc1-c1ccc2c(c1)CN(CCNC(=O)CCCN)C(N)=N2 [Compound 494] | <30% | <30% | <30% | – | – | – | –
CC(C)(C)OC(=O)N1CCC(N2Cc3cc(Oc4ccccc4)ccc3N=C2N)CC1 [Compound 499, 4-(2-Amino-6-phenoxy-4H-quinazolin-3-yl)-piperidine-1-carboxylic acid tert-butyl ester] | – | – | – | – | < 30% | < 30% | < 30%
CN(C(=O)c1ccc(CN2Cc3cc(Oc4ccccc4)ccc3N=C2N)s1)C1CCCCC1 [Compound 503] | <30% | <30% | 90% | – | – | – | –
CC1CCCCN1C(=O)CCCC(CCC(=O)N1CCCCC1C)N1Cc2cc(Oc3ccccc3)ccc2N=C1N (stereo not drawn) [Compound 504] | <30% | 31% | 96% | – | – | – | –
COc1ccccc1-c1ccc2c(c1)CN([C@@H](CCC(=O)N(C)C1CCCCC1)C1CCCCC1)C(N)=N2 [Compound 506] | 106% | 115% | 128% | – | – | – | –
CC(C)(C)OC(=O)N1CCC(CN2Cc3cc(Oc4ccccc4)ccc3N=C2N)CC1 [Compound 509] | <30% | <30% | 41% | – | – | – | –
CC(C)(C)OC(=O)N1CCCCC(N2Cc3cc(Oc4ccccc4)ccc3N=C2N)C1 (stereo not drawn) [Compound 510] | <30% | <30% | 37% | – | – | – | –
CN(C(=O)c1cccc(CN2Cc3cc(Oc4ccccc4C4CCCC4)ccc3N=C2N)c1)C1CCCCC1 [Compound 512] | <30% | <30% | 51% | – | – | – | –
CN(C(=O)c1cccc(CN2Cc3cc(OCc4ccccc4-c4ccccc4)ccc3N=C2N)c1)C1CCCCC1 [Compound 513] | <30% | <30% | <30% | – | – | – | –
